# From paper PMC9229798, “Antioxidant Activity and Cytotoxicity of Aromatic Oligosulfides” (Molecules, 2022)
# Where two headings read alike, the source gives them in different places.
# How the values were obtained:
# [1] = system: SOD; assay: SOD-protective activity, cytosolic fraction of liver homogenate; assay type: biochemical, Russian sturgeon; conditions: adrenaline oxidation with biopreparation, compound initial 25 µM
# Description: Superoxide dismutase (SOD) is present in almost all aerobic cells and extracellular fluids and is able to inhibit the accumulation of adrenochrome by intercepting O2^–•. The process of splitting O2^–• by SOD into O2 and H2O2 occurs in the body, which is facilitated by the presence of metal ions Cu, Zn, Mn and Fe, playing an important role in lipid peroxidation. […] This system is also suitable for determining the activity of the endogenous enzyme–antioxidant SOD responsible for the utilization of O2^–• [43, 44]. The reaction sequence of adrenaline autoxidation with the adrenochrome formation was described earlier.
# SOD-protective activity of the biopreparation was the ability to utilize the superoxide anion radical O2^–•, as determined by the method of Sirota. A cytosolic fraction of the Russian sturgeon liver homogenate was used as the source of SOD. First, the sturgeon liver was washed with cold 0.2 M Tris (tris (hydroxymethyl) aminomethane) buffer (pH 7.8) to remove any traces of blood. All of the procedures were performed at a temperature of 0–4 °C. Next, a homogenate was obtained using a Potter homogenizer (Thomas Scientifc, Swedesboro, NJ, USA) in 0.2 M Tris buffer at a ratio of 1:10. The homogenate was then centrifuged for 10 min at 1000× g to remove partially destroyed cells and nuclei. The resulting supernatant contained the enzymes of the cytosolic fraction of the liver homogenate, including the SOD. Here, 10 µL of the biopreparation was added to a cuvette with 200 µL of bicarbonate buffer (pH 10.65), 10 µL of the tested compound (initial concentrations of these compounds 25 µM) and 10 µL of 0.1% adrenaline solution and was thoroughly and quickly mixed. The rate of adrenaline oxidation without and in the presence of the biopreparation was evaluated by the change in optical density, measured at 347 nm for 3 min. The decrease in the rate of the process in the presence of the biopreparation was used to characterize the SOD-protective activity.
# [2] = LOOH accumulation in non-enzymatic peroxide oxidation of oleic acid; conditions: 65 °C; for LOOH, k0/k1 (relative rate constant of LOOH formation): 1 mmol/L additive, 3 h
# Method: The total antioxidant activity of compounds 1–6 during the oxidation of oleic acid with atmospheric oxygen at 65 °C for 3 h was determined by standard methods according to the level of accumulation of the main metabolites. Hydroperoxides as primary products (LOOH) and secondary LPO carbonyl products formed colored complexes with thiobarbituric acid (TBARS).
# The kinetics of LOOH and TBARS formation was similar in the control test and in the presence of the studied compounds. The exponential kinetic curves of LOOH accumulation in oleic acid corresponded to the equation CLOOH = a × e^kt with correlation coefficients close to 1. It indicated a pseudo-first order of reaction in the substrate, inherent in a radical process with degenerate chain branching (Figure 2). The kinetic curves of secondary carbonyl products were linear and corresponded to the equation CTBARS = kt + b, with correlation coefficients close to 1 (Figure 3).
# The determination of oleic acid oxidation level was performed by the kinetic measurement of the total concentration of the corresponding isomeric LOOH using iodometric titration. The oxidation of constant volume of the acid (15 mL) was carried out in a thermostatic cell using an air flow at 65 °C during 3 h. The oxidation proceeded in the conditions, the oxidation rate was independent of the air volume passing through the cell.
# The concentrations of the additives were 1 mM compared with the initial concentration of LOOH in the reaction mixture. Oleic acid (1 mL), CHCl3 (12 mL), glacial AcOH (18 mL), and freshly prepared cold-saturated KI solution (1 mL) were placed in a flask and shaken for 2 min. Then distilled water (100 mL) and a 1% starch solution (1 mL) were added and the resulting mixture was immediately titrated with Na2S2O3 solution (0.01 N). Iodine released in an amount equivalent to that of LOOH was titrated with a standard thiosulfate solution. At the same time, a control test for reagents was carried out: all the reagents except for oleic acid were added to the flask. The LOOH concentration was calculated according to the following formula:
# [LOOH] = [(Vs − Vc) × 0.001269 × K × 100]/m, where vs. is the volume of 0.01 N Na2S2O3 solution, consumed during the titration of working sample, mL; Vc is the volume of 0.01 N Na2S2O3 solution, consumed during the titration of control, mL; K is the conversion factor to exactly 0.01 N Na2S2O3 solution; m is the mass of studied oleic acid; and 0.001269 is the amount of I2 expressed in g, equivalent to 1 mL of 0.01 N Na2S2O3 solution. The [LOOH, mmol/L] content equal to 1% corresponded to 78.7 mM of active O2 per 1 L of lipids.
# [3] = design: method as in doi:10.3906/kim-1904-40; conditions: PASS, cited from earlier work
# [4] = system: MCF-7; design: method as in doi:10.3906/kim-1904-40; conditions: CLC-Pred, cited from earlier work; for Cytotoxicity MCF-7, Pi: probability of lack of activity; for Cytotoxicity MCF-7, Pa: probability of presence of activity
# [5] = design: method as in doi:10.3906/kim-1904-40; conditions: Trolox equivalents; cited from earlier work
# [6] = ferrozine–Fe2+ complex formation; cited from earlier work
# [7] = design: method as in doi:10.3906/kim-1904-40; conditions: adrenaline autoxidation in alkaline buffer; cited from earlier work
# [8] = design: method as in doi:10.1016/j.arabjc.2021.103068; conditions: 1 mmol/L additive, 65 °C; cited from earlier work
# [9] = design: method as in doi:10.1016/j.arabjc.2021.103068; conditions: all stages of LPO; cited from earlier work
# [10] = probability of lack of activity
# [11] = probability of presence of activity
Structure (SMILES),"SOD Activity of Liver Sturgeon, % Inhibition [1]","LOOH, k0/k1 (relative rate constant of LOOH formation) [2]","Antidote, Pi [3, 10]","Free radical scavenger, Pi [3, 10]","Nitric oxide scavenger, Pi [3, 10]","Oxygen scavenger, Pi [3, 10]","Antidote, Pa [3, 11]","Free radical scavenger, Pa [3, 11]","Nitric oxide scavenger, Pa [3, 11]","Oxygen scavenger, Pa [3, 11]","Cytotoxicity MCF-7, Pi [4]","Cytotoxicity MCF-7, Pa [4]",TEAC CUPRAC [5],"FIC, % of Inhibition [6]","Antiradical Activity, % Inhibition [7]","LOOH, k0/k1 (relative rate constant of LOOH formation) [8]",anti-/prooxidant effect in liver LPO [9],"Antioxidant, Pi [3, 10]","Antioxidant, Pa [3, 11]","LOOH accumulation, % of inhibition ([2]; after 3 h incubation of oleic acid)"
"Oc1ccc(SSc2ccc(O)cc2)cc1 [Compound 4, 4,4′-dihydroxydiphenyl disulfide]",75 ± 5.6%,0.61 ± 0.03,,,,,,,,,,,,,,,,,,
"COc1ccccc1SSc1ccccc1OC [Compound 2, bis(2-methoxyphenyl) disulfide]",60 ± 3.3%,0.86 ± 0.11,,,,,,,,,,,,,,,,,,
"c1ccc(SSc2ccccc2)cc1 [Compound 5, diphenyl disulfide]",,,0.078,0.056,0.013,0.018,0.228,0.230,0.274,0.621,0.005,0.882,0.10 ± 0.01,73.7 ± 2.1 %,56 ± 2.9 %,0.79 ± 0.11,prolonged prooxidant activity,,,
"CC(C)(C)c1cc(SSc2cc(C(C)(C)C)c(O)c(C(C)(C)C)c2)cc(C(C)(C)C)c1O [Compound 6, bis(3,5-di-tert-butyl-4-hydroxyphenyl) disulfide]",,,0.027,0.012,0.012,0.044,0.317,0.473,0.278,0.519,0.082,0.403,2.04 ± 0.05,28.9 ± 1.3 %,37 ± 4.8 %,0.49 ± 0.05,pronounced antioxidant effect,0.005,0.549,
"c1ccc(SSSc2ccccc2)cc1 [Compound 1, diphenyl trisulfide]",41 ± 2.7%,0.78 ± 0.15,,,,,,,,,,,,,,,,,,22.5%
